Laboratory results taken from BindingDB's records for doi:10.1111/cbdd.12241 (Chengde Medical University, 2014).

target: T1, Glycogen phosphorylase, muscle form (Oryctolagus cuniculus, UniProt P00489); assay: Inhibition Assay; conditions: pH 7.2; 22 °C
T1 sequence (P00489 whole entry): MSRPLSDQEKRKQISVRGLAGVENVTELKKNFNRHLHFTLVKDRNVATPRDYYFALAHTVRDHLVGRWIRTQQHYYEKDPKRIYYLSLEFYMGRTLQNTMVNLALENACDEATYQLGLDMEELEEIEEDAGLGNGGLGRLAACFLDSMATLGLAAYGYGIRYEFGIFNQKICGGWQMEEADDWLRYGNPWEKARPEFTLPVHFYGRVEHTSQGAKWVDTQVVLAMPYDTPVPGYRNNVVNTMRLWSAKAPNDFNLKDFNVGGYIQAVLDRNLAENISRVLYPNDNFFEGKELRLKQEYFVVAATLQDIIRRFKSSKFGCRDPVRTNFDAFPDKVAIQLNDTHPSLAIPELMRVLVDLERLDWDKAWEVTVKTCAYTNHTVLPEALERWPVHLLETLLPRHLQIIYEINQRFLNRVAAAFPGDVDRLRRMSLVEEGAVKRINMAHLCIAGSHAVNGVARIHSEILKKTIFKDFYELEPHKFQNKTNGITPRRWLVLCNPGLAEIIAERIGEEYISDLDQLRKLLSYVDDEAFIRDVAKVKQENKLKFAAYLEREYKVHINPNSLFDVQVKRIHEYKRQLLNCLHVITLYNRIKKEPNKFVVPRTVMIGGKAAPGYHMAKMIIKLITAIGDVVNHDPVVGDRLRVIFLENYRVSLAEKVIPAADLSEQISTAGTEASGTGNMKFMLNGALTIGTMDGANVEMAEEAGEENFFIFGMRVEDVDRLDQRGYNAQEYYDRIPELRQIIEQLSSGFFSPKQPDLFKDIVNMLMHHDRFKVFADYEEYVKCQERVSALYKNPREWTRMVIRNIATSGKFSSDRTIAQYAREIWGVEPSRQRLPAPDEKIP
Experimental: Each compound was dissolved in DMSO and diluted at different concentrations. RMGPa was added to 100 µL of buffer (50 mM Hepes pH 7.2, 100 mM KCl, 2.5 mM MgCl2, 0.5 mM glucose-1-phosphate, 1 mg/mL glycogen, and compound in 96-well microplates. Reaction was […] by the addition of 150 µL of 1 M HCl containing 10 mg/mL ammonium molybdate and 0.38 mg/mL malachite green and run for 25 min at 22 C.

For `CCCCCCCCCC(=O)OCc1cn(CC(=O)O[C@H]2CC[C@]3(C)[C@H]4CC=C5[C@@H]6CC(C)(C)CC[C@]6(C(=O)O)CC[C@@]5(C)[C@]4(C)CC[C@H]3C2(C)C)nn1` [3b-[2-(4-decanoyloxymethyl-1H-1,2,3-triazol-1-yl)acetoxy]olean-12-en-28-oic acid (Compound 8b)], which IC50 is on record?
Its IC50 is 25.6 µM.

Which IC50 does the source give for `CCCCCCCCCCCC(=O)OCc1cn(CC(=O)O[C@H]2CC[C@]3(C)[C@H]4CC=C5[C@@H]6CC(C)(C)CC[C@]6(C(=O)O)CC[C@@]5(C)[C@]4(C)CC[C@H]3C2(C)C)nn1` [3b-[2-(4-dodecanoyloxymethyl-1H-1,2,3-triazol-1-yl)acetoxy]olean-12-en-28-oic acid (Compound 8c)] here?
Its IC50 is 8.4 µM.

`CCCCCCCCC(=O)OCc1cn(CC(=O)O[C@H]2CC[C@]3(C)[C@H]4CC=C5[C@@H]6CC(C)(C)CC[C@]6(C(=O)O)CC[C@@]5(C)[C@]4(C)CC[C@H]3C2(C)C)nn1` [3b-[2-(4-nonanoyloxymethyl-1H-1,2,3-triazol-1-yl)acetoxy]olean-12-en-28-oic acid (Compound 8a)] was tested. Which IC50 did it give?
Its IC50 is 77.1 µM.

For `CCCCCCCCCCCCCCCC(=O)OCc1cn(CC(=O)O[C@H]2CC[C@]3(C)[C@H]4CC=C5[C@@H]6CC(C)(C)CC[C@]6(C(=O)O)CC[C@@]5(C)[C@]4(C)CC[C@H]3C2(C)C)nn1` [3b-[2-(4-palmitoyloxymethyl-1H-1,2,3-triazol-1-yl)acetoxy]olean-12-en-28-oic acid (Compound 8d)], which IC50 is on record?
The IC50 was 221 µM.

`CCCCCCCCCCCCCCCCCC(=O)OCc1cn(CC(=O)O[C@H]2CC[C@]3(C)[C@H]4CC=C5[C@@H]6CC(C)(C)CC[C@]6(C(=O)O)CC[C@@]5(C)[C@]4(C)CC[C@H]3C2(C)C)nn1` [3b-[2-(4-stearoyloxymethyl-1H-1,2,3-triazol-1-yl)acetoxy]olean-12-en-28-oic acid (Compound 8e)] was tested. Which IC50 did it give?
Its IC50 is 11.2 µM.

Which IC50 does the source give for `COc1ccc(C(=O)OCc2cn(CC(=O)O[C@H]3CC[C@]4(C)[C@H]5CC=C6[C@@H]7CC(C)(C)CC[C@]7(C(=O)O)CC[C@@]6(C)[C@]5(C)CC[C@H]4C3(C)C)nn2)cc1` [3b-{2-[4-(4-methoxybenzoyloxy)methyl-1H-1,2,3-triazol-1-yl]acetoxy}olean-12-en-28-oic acid (Compound 8f)] here?
The IC50 was 34.6 µM.

With `CCCCCCCCCC(=O)OCc1cn(CC(=O)O[C@H]2CC[C@]3(C)[C@H]4CC=C5[C@@H]6CC(C)(C)CC[C@]6(C(=O)OCc6ccccc6)CC[C@@]5(C)[C@]4(C)CC[C@H]3C2(C)C)nn1` [Benzyl 3b-[2-(4-decanoyloxymethyl-1H-1,2,3-triazol-1-yl)acetoxy]olean-12-en-28-oate (Compound 7b)] as the compound, how does the IC50 read?
Its IC50 is 144 µM.

With `CCCCCCCCC(=O)OCc1cn(CC(=O)O[C@H]2CC[C@]3(C)[C@H]4CC=C5[C@@H]6CC(C)(C)CC[C@]6(C(=O)OCc6ccccc6)CC[C@@]5(C)[C@]4(C)CC[C@H]3C2(C)C)nn1` [Benzyl 3b-[2-(4-nonanoyloxymethyl-1H-1,2,3-triazol-1-yl)acetoxy]olean-12-en-28-oate (Compound 7a)] as the compound, how does the IC50 read?
Its IC50 is 80.1 µM.

For `CC1(C)CC[C@]2(C(=O)OCc3ccccc3)CC[C@]3(C)C(=CC[C@@H]4[C@@]5(C)CC[C@H](OC(=O)Cn6cc(COC(=O)Cc7ccc8ccccc8c7)nn6)C(C)(C)[C@@H]5CC[C@]43C)[C@@H]2C1` [Benzyl 3b-{2-[4-(2-naphthalen-2-yl)acetoxymethyl-1H-1,2,3-triazol-1-yl]acetoxy}olean-12-en-28-oate (Compound 7g)], which IC50 is on record?
Its IC50 is 23.9 µM.

For `COc1ccc(C(=O)OCc2cn(CC(=O)O[C@H]3CC[C@]4(C)[C@H]5CC=C6[C@@H]7CC(C)(C)CC[C@]7(C(=O)OCc7ccccc7)CC[C@@]6(C)[C@]5(C)CC[C@H]4C3(C)C)nn2)cc1` [Benzyl 3b-{2-[4-(4-methoxybenzoyloxy)methyl-1H-1,2,3-triazol-1-yl]acetoxy}olean-12-en-28-oate (Compound 7f)], which IC50 is on record?
Its IC50 is 38.9 µM.

How did the IC50 turn out when `CC1(C)CC[C@]2(C(=O)OCc3ccccc3)CC[C@]3(C)C(=CC[C@@H]4[C@@]5(C)CC[C@H](O)C(C)(C)[C@@H]5CC[C@]43C)[C@@H]2C1` [benzyl (4aS,6aS,6bR,8aR,10S,12aR,12bR,14bS)-10-hydroxy-2,2,6a,6b,9,9,12a-heptamethyl-1,3,4,5,6,7,8,8a,10,11,12,12b,13,14b-tetradecahydropicene-4a-carboxylate (Compound 4)] was run?
Its IC50 is 461 µM.
